Data: patent US20080300231A1, “Antibacterial amide macrocycles VI” (priority 2005, published 2008)
In brackets after ≈: the same amount, converted by molar mass.

System: Enterococcus faecium L4001
Test: Minimum inhibitory concentration (MIC), E. faecium L4001
Type: cell-based
Conditions: E. faecium L4001; test medium with 10% FCS
Protocol: Determination of the Minimum Inhibitory Concentration (MIC)
The minimum inhibitory concentration (MIC) is the minimum concentration of an antibiotic with which the growth of a test microbe is inhibited over 18-24 h. The inhibitor concentration can in these cases be determined by standard microbiological methods (see, for example, The National Committee for Clinical Laboratory Standards. Methods for dilution antimicrobial susceptibility tests for bacteria that grow aerobically; approved standard-fifth edition. NCCLS document M7-A5 [ISBN 1-56238-394-9]. NCCLS, 940 West Valley Road, Suite 1400, Wayne, Pa. 19087-1898 USA, 2000). The MIC of the compounds of the invention is determined in the liquid dilution test on the 96-well microtitre plate scale. The bacterial microbes are cultivated in a minimal medium (18.5 mM Na2HPO4, 5.7 mM KH2PO4, 9.3 mM NH4Cl, 2.8 mM MgSO4, 17.1 mM NaCl, 0.033 μg/ml of thiamine hydrochloride, 1.2 μg/ml of nicotinic acid, 0.003 μg/ml of biotin, 1% glucose, 25 μg/ml of each proteinogenic amino acid with the exception of phenylalanine; [H.-P. Kroll; unpublished]) with addition of 0.4% BH broth (test medium). In the case of Enterococcus faecium L4001, heat-inactivated fetal calf serum (FCS; GibcoBRL, Germany) is added to the test medium in a final concentration of 10%. Overnight cultures of the test microbes are diluted to an OD578 of 0.001 (to 0.01 in the case of enterococci) in fresh test medium, and incubated 1:1 with dilutions of the test substances (1:2 dilution steps) in test medium (200 μl final volume). The cultures are incubated at 37° C. for 18-24 hours; enterococci in the presence of 5% CO2
The lowest substance concentration in each case at which no visible bacterial growth occurs any more is defined as the MIC.
Alternative Method for Determining the Minimum Inhibitory Concentration (MIC)
The minimum inhibitory concentration (MIC) is the minimum concentration of an antibiotic with which the growth of a test microbe is inhibited over 18-24 h. The inhibitor concentration can in these cases be determined by standard microbiological methods with modified medium in an agar dilution test (see, for example, The National Committee for Clinical Laboratory Standards. Methods for dilution antimicrobial susceptibility tests for bacteria that grow aerobically; approved standard-fifth edition. NCCLS document M7-A5 [ISBN 1-56238-394-9]. NCCLS, 940 West Valley Road, Suite 1400, Wayne, Pa. 19087-1898 USA, 2000). The bacterial microbes are cultivated on 1.5% agar plates which contain 20% defibrinated horse blood. The test microbes, which are incubated overnight on Columbia blood agar plates (Becton-Dickinson), are diluted in PBS, adjusted to a microbe count of about 5×10^5 microbes/ml and placed dropwise (1-3 μl) on test plates. The test substances comprise different dilutions of the test substances (1:2 dilution steps). The cultures are incubated at 37° C. in the presence of 5% CO2 for 18-24 hours.
The lowest substance concentration in each case at which no visible bacterial growth occurred any more is defined as the MIC and is reported in μg/ml.

## NC[C@H](O)C[C@@H]1NC(=O)[C@@H](N)Cc2cc(ccc2O)-c2ccc(O)c(c2)C[C@@H](C(=O)O)NC1=O [Biphenomycin B, biphenomycin B, reference compound]
  MIC E. faecium L4001: 0.5 µg/mL (≈ 1.06 µM)
